{
  "source": "patent US20260001872A1",
  "about": "“BENZISOTHIAZOLE COMPOUND AND APPLICATION THEREOF, AND PHARMACEUTICAL COMPOSITION AND APPLICATION THEREOF” (Picomole Therapeutics (Liaoning) Co., Ltd., priority 2022, published 2026)",
  "key": {"[1]": {"conditions": "in vivo; cited from earlier work"}, "[2]": {"tested_on": "premature ejaculation model in Wistar rats after PCA induction", "assay": "premature ejaculation model in Wistar rats after PCA induction", "assay_type": "in vivo", "conditions": "for Actual ejaculation number / First contractive latency / First ejaculation latency / Seminal vesicle basal pressure (mmHg) / Seminal vesicle peak pressure (mmHg) / The number of seminal vesicle contractions: individual rats, within 30 min after PCA induction", "experimental": "Male Wistar rats with body weight of about 300 g were subjected to a one-week acclimation period before the experiment began. On the day of the experiment, the animals were anesthetized with intraperitoneal (i.p.) injection of Zoletil 50 at 20 mg/kg combined with xylazine at 8 mg/kg, and then subjected to body temperature maintenance at 37° C. using a thermostatically controlled heating pad. The common carotid artery was exposed and cannulated with a PE50 catheter for real-time monitoring of arterial pressure (systolic blood pressure, diastolic blood pressure, and mean arterial pressure). The seminal vesicle and corpus cavernosum muscle of the animals were exposed. Seminal vesicle pressure and corpus cavernosum electromyographic (EMG) stabilized baseline were recorded for 10 min. In the dapoxetine group, the medications were administrated via tail vein intravenous (i.v.) injection; in the to-be-tested compound group, the to-be-tested compound was administrated orally (in the PE model group, the to-be-tested compound was substituted with vehicles); after 1 min, PCA (5 mg/kg) was intraperitoneally (i.p.) injected to induce the PE model; and recording of seminal vesicle pressure profiles and electromyographic (EMG) activity variations in the bulbocavernosus muscle continued to be performed for 30 min.\n• A. The actual ejaculation number and the first ejaculation latency in animals within 30 min • B. The number of seminal vesicle contractions, the first contractive latency, basal pressure, and peak pressure within 30 min\nThe experimental data was represented by mean±S.E.M. and statistically analyzed by GraphPad Prism 7.0 software. One-way analysis of variance (One-way ANOVA) was used for comparison among multiple groups, and Dunnett't-test was used for statistical analysis in Post hoc test; and the comparison between two groups was statistically analyzed using Student's t-test. P<0.05 indicates a significant difference."}, "[3]": {"conditions": "Dapoxetine 2 mg/kg i.v. + PCA 5 mg/kg i.p., hydrochloride"}, "[4]": {"conditions": "statistical analysis, PCA-induced model"}, "[5]": {"conditions": "0.125 mg/kg p.o. + PCA 5 mg/kg i.p."}, "[6]": {"conditions": "0.5 mg/kg p.o. + PCA 5 mg/kg i.p."}, "[7]": {"conditions": "2 mg/kg p.o. + PCA 5 mg/kg i.p."}, "[8]": {"conditions": "2 mg/kg p.o. + PCA 5 mg/kg i.p., listed as A002"}},
  "note": "Values joined by “and” are separate entries in the source; they are usually repeats but may differ in a detail not shown here. Equal values may be shown once. Where a name gives a salt, the structure may show the parent alone.",
  "data": [
    {"compound": "CN(C)[C@@H](CCOc1cccc2ccccc12)c1ccccc1", "note": "[Dapoxetine, Dapoxetine hydrochloride, reference compound]", "values": [
      {"measurement": "bioavailability", "setting": "[1]", "result": 42, "unit": "%"},
      {"measurement": "Actual ejaculation number", "setting": "[2]; [3]", "result": "1 (2×) and 0 (2×) and 2"},
      {"measurement": "First contractive latency", "setting": "[2]; [3]", "result": "1448 s and 1705 s and 1800 s and 1749 s and 866 s"},
      {"measurement": "First ejaculation latency", "setting": "[2]; [3]", "result": "1558 s and 1800 s (2×) and 1256 s and 967 s"},
      {"measurement": "Seminal vesicle basal pressure (mmHg)", "setting": "[2]; [3]", "result": "5.16 mmHg and 4.97 mmHg and 5.37 mmHg and 5.88 mmHg and 4.96 mmHg"},
      {"measurement": "Seminal vesicle peak pressure (mmHg)", "setting": "[2]; [3]", "result": "6.89 mmHg and 8.1 mmHg and 6.46 mmHg and 6.78 mmHg and 7.03 mmHg"},
      {"measurement": "The number of seminal vesicle contractions", "setting": "[2]; [3]", "result": "1 (3×) and 0 and 3"},
      {"measurement": "initial seminal vesicle contractive latency compared with the PE model group", "setting": "[2]; P<0.01, P<0.001, FIG. 4", "result": "significant increase"},
      {"measurement": "contraction number of the corpus cavernosum muscle (conclusion)", "setting": "[2]; [4]", "result": "decrease"},
      {"measurement": "ejaculation latency (conclusion)", "setting": "[2]; [4]", "result": "effectively prolong"},
      {"measurement": "ejaculation number (conclusion)", "setting": "[2]; [4]", "result": "significantly decrease"},
      {"measurement": "seminal vesicle pressure (conclusion)", "setting": "[2]; [4]", "result": "reduce"}
    ]},
    {"compound": "c1ccc2nn(CCCCN3CCN(c4nsc5ccccc45)CC3)nc2c1", "note": "[A001]", "values": [
      {"measurement": "Actual ejaculation number", "setting": "[2]; [5]", "result": "2 (2×) and 6 (2×) and 1"},
      {"measurement": "First contractive latency", "setting": "[2]; [5]", "result": "1278 s and 824 s and 889 s and 1207 s and 1558 s"},
      {"measurement": "First ejaculation latency", "setting": "[2]; [5]", "result": "1456 s and 916 s and 985 s and 1380 s and 1667 s"},
      {"measurement": "Seminal vesicle basal pressure (mmHg)", "setting": "[2]; [5]", "result": "5.79 mmHg and 6.18 mmHg and 6.05 mmHg and 4.78 mmHg and 3.89 mmHg"},
      {"measurement": "Seminal vesicle peak pressure (mmHg)", "setting": "[2]; [5]", "result": "13.46 mmHg and 16.77 mmHg and 20.06 mmHg and 11.05 mmHg and 9.81 mmHg"},
      {"measurement": "The number of seminal vesicle contractions", "setting": "[2]; [5]", "result": "5 and 9 and 8 and 4 and 3"},
      {"measurement": "Actual ejaculation number", "setting": "[2]; [6]", "result": "2 (3×) and 0 (2×)"},
      {"measurement": "First contractive latency", "setting": "[2]; [6]", "result": "1186 s and 1298 s and 1317 s and 1800 s (2×)"},
      {"measurement": "First ejaculation latency", "setting": "[2]; [6]", "result": "1256 s and 1382 s and 1477 s and 1800 s (2×)"},
      {"measurement": "Seminal vesicle basal pressure (mmHg)", "setting": "[2]; [6]", "result": "5.76 mmHg and 5.88 mmHg and 5.79 mmHg and 3.67 mmHg and 3.87 mmHg"},
      {"measurement": "Seminal vesicle peak pressure (mmHg)", "setting": "[2]; [6]", "result": "11.87 mmHg and 10.66 mmHg and 9.08 mmHg and 4.86 mmHg and 5.23 mmHg"},
      {"measurement": "The number of seminal vesicle contractions", "setting": "[2]; [6]", "result": "3 and 4 (2×) and 0 (2×)"},
      {"measurement": "Actual ejaculation number", "setting": "[2]; [7]", "result": 0},
      {"measurement": "First ejaculation latency", "setting": "[2]; [7]", "result": 1800, "unit": "s"},
      {"measurement": "First contractive latency", "setting": "[2]; [8]", "result": "1568 s and 1800 s (4×)"},
      {"measurement": "Seminal vesicle basal pressure (mmHg)", "setting": "[2]; [8]", "result": "4.05 mmHg and 4.17 mmHg and 4.86 mmHg and 4.18 mmHg and 3.88 mmHg"},
      {"measurement": "Seminal vesicle peak pressure (mmHg)", "setting": "[2]; [8]", "result": "9.67 mmHg and 6.04 mmHg and 5.18 mmHg and 4.98 mmHg and 5.05 mmHg"},
      {"measurement": "The number of seminal vesicle contractions", "setting": "[2]; [8]", "result": "2 and 0 (4×)"}
    ]}
  ]
}
